Test results published in patent EP0878472A1, “Reactive radiation- or thermally- initiated cationically-curable epoxide monomers and compositions made from those monomers” (National Starch and Chemical Investment Holding Corporation, priority 1997, dated 1998).
Values belong to the compound of their own block, whether it stands above or below them.

Legend:
Type in all cases: physicochemical
[1] = Photo-DSC analysis of various styrene oxides formulated with photoinitiator and diol (Example 6)
Method: A sample in the range of 1.5 to 3.0 mg for each composition was exposed to UV radiation and the rate of cure followed by a DPA-7 Perkin-Elmer Photo-Differential Scanning Calorimeter (P-DSC). Each sample was equilibrated to constant temperature (25 °C) on the Calorimeter for one minute and then exposed to irradiation for a total of four minutes using a 100 Watt Mercury short arc lamp. […] In the Tables, Tmax is the time it took to reach the peak maximum exotherm in seconds, and ΔH is the exotherm of the reaction in kJoules per mole of epoxy, measured as the area over the cure from the four minute baseline back to the onset of exotherm.
Photo-DSC of various styrene oxides was conducted by formulating the epoxides with a photoinitiator and a diol.

[2] = Storage stability of the epoxide at room temperature
Method: The epoxidation may be performed on the starting olefinic compound by any suitable method known in the art, but is preferably conducted through a potassium monopersulfate/acetone oxidation of the olefinic portion of the corresponding styrene. The styrene compound is suspended in a mixture of acetone and water, and buffered with sodium bicarbonate, which serves to prevent decomposition of the resultant oxides. This suspension is then treated with an excess of the oxidant, provided as an aqueous solution of the monopersulfate compound (2KHSO5.KHSO4.K2SO4,) (Oxone®, a product of DuPont). The recovered solution is partitioned with ethyl acetate, toluene, methylene chloride, or other suitable solvent. Workup consists of washing the organic layer with water followed by drying with a non-acidic drying agent (e.g., anhydrous […]). Filtering this mixture, followed by removal of organic solvent in vacuo, affords the desired epoxide in high yield without further purification. […]
A suspension of 1 equivalent of 1,3-diisopropenyl benzene (5mL, 0.925g/mL, 29.2mmol) and 6 equivalents of sodium bicarbonate (15.9g, 190mmol) in a 2 : 1 mixture (volume : volume) of acetone : water (total 450mL) was treated with an aqueous solution containing 2 equivalents of potassium persulfate (Oxone®) (36.5g, 59.3mmol). […] The pH was monitored during this time and remained neutral. […]

[3] = Photo-DSC (P-DSC) UV cure of epoxide/diol adhesive compositions (Example 3)
Method: These compositions were compared to control formulations containing a cycloaliphatic epoxide obtained from Union Carbide, as product ERL-4221, which has the structure: [drawing 5]
A sample in the range of 1.5 to 3.0 mg for each composition was exposed to UV radiation and the rate of cure followed by a DPA-7 Perkin-Elmer Photo-Differential Scanning Calorimeter (P-DSC). Each sample was equilibrated to constant temperature (25 °C) on the Calorimeter for one minute and then exposed to irradiation for a total of four minutes using a 100 Watt Mercury short arc lamp. […] The diol used in the compositions, the molar ratio of epoxy to diol, and the DSC results are set out in Table 1 for the inventive styrene epoxy, and in Table 2 for the cycloaliphatic epoxy. In the Tables, Tmax is the time it took to reach the peak maximum exotherm in seconds, and ΔH is the exotherm of the reaction in kJoules per mole of epoxy, measured as the area over the cure from the four minute baseline back to the onset of exotherm.
The time the reaction takes to reach Tmax is a direct indication of the speed of the reaction; thus, the shorter the time (i.e. the sharper the peak), the faster the cure reaction for the epoxy, which is a desirable property for these adhesive compositions. In the following tables, the peak are designated either sharp or broad; for purposes herein, if more than half the exotherm occurred in the first 30 seconds, the peak was defined as sharp, and conversely, if less than half the exotherm occurred in the first 30 seconds, the peak was defined as broad.
The ΔH values are a direct indication of the degree of epoxy ring opening, with the more negative numbers reflecting the higher degree of conversion of the epoxy.

[4] = Stepanol PS-4002, Epoxy:Diol 1:1
[5] = Stepanol PS-4002, Epoxy:Diol 3:1

ΔH ([1]; MP-diol, Epoxy:Diol 1:1): -27.5 kJ/Mole EPOXIDE
ΔH ([1]; MP-diol, Epoxy:Diol 3:1): -16.1 kJ/Mole EPOXIDE
ΔH ([1]; Tone polyol, Epoxy:Diol 1:1): -55.6 kJ/Mole EPOXIDE
ΔH ([1]; Tone polyol, Epoxy:Diol 3:1): -30.8 kJ/Mole EPOXIDE
ΔH ([1]; no diol): 0 kJ/Mole EPOXIDE
Compound: CC(=O)OCC1OC1c1ccccc1 (stereo not drawn) [cinnamyl acetate epoxy, cinnamyl acetate epoxide]

ΔH ([1]; MP-diol, Epoxy:Diol 1:1): -57.8 kJ/Mole EPOXIDE
ΔH ([1]; MP-diol, Epoxy:Diol 3:1): -63.6 kJ/Mole EPOXIDE
ΔH ([1]; Tone polyol, Epoxy:Diol 1:1): -98,8 kJ/Mole EPOXIDE
ΔH ([1]; Tone polyol, Epoxy:Diol 3:1): -82,4 kJ/Mole EPOXIDE
ΔH ([1]; no diol): -43.9 kJ/Mole EPOXIDE
Compound: COCC1OC1c1ccccc1 (stereo not drawn) [cinnamyl methyl ether epoxy, cinnamyl methyl ether epoxide]

ΔH ([1]; MP-diol, Epoxy:Diol 1:1): -70,1 kJ/Mole EPOXIDE
ΔH ([1]; MP-diol, Epoxy:Diol 3:1): -67.6 kJ/Mole EPOXIDE
ΔH ([1]; Tone polyol, Epoxy:Diol 1:1): -75.0 kJ/Mole EPOXIDE
ΔH ([1]; Tone polyol, Epoxy:Diol 3:1): -65.0 kJ/Mole EPOXIDE
ΔH ([1]; no diol): -15.7 kJ/Mole EPOXIDE
Compound: COc1cc(C2OC2C)ccc1OC(C)=O (stereo not drawn) [isoeugenol acetate epoxy, isoeugenol acetate epoxide]

advancement of the epoxide ([2]; after one year at room temperature): no advancement
Compound: divinylbenzene dioxide [Example 2]

More lines, now with the values behind:

Compound: 1,3-diisopropenylbenzene dioxide [Example 1]
ΔH ([1]; Tone polyol, Epoxy:Diol 1:1): -72.8 kJ/Mole EPOXIDE
ΔH ([1]; no diol): -57.8 kJ/Mole EPOXIDE
advancement of the epoxide ([2]; after 13 days at room temperature): no advancement
Tmax ([3]; MP-diol, Epoxy:Diol 1:1): 4.35 s
ΔH ([3]; MP-diol, Epoxy:Diol 1:1): -77.4 kJ/mole epoxide
Tmax ([3]; MP-diol, Epoxy:Diol 3:1): 2.94 s
ΔH ([3]; MP-diol, Epoxy:Diol 3:1): -58.2 kJ/mole epoxide
Tmax ([3]; Rucoflex 107, Epoxy:Diol 1:1): 4.32 s
ΔH ([3]; Rucoflex 107, Epoxy:Diol 1:1): -84.1 kJ/mole epoxide
Tmax ([3]; Rucoflex 107, Epoxy:Diol 3:1): 4.20 s
ΔH ([3]; Rucoflex 107, Epoxy:Diol 3:1): -79.1 kJ/mole epoxide
Tmax [3, 4]: 6.12 s
ΔH [3, 4]: -76.0 kJ/mole epoxide
Tmax [3, 5]: 4.83 s
ΔH [3, 5]: -62.6 kJ/mole epoxide
Tmax ([3]; SynFac 8031, Epoxy:Diol 1:1): 4.74 s
ΔH ([3]; SynFac 8031, Epoxy:Diol 1:1): -71.8 kJ/mole epoxide
Tmax ([3]; SynFac 8031, Epoxy:Diol 3:1): 3.57 s
ΔH ([3]; SynFac 8031, Epoxy:Diol 3:1): -65.5 kJ/mole epoxide
Tmax ([3]; Tone 0201, Epoxy:Diol 1:1): 3.57 s
ΔH ([3]; Tone 0201, Epoxy:Diol 1:1): -73.4 kJ/mole epoxide
Tmax ([3]; Tone 0201, Epoxy:Diol 1:3): 4.59 s
ΔH ([3]; Tone 0201, Epoxy:Diol 1:3): -75.9 kJ/mole epoxide
Tmax ([3]; Tone 0201, Epoxy:Diol 3:1): 3.96 s
ΔH ([3]; Tone 0201, Epoxy:Diol 3:1): -56.4 kJ/mole epoxide
Tmax ([3]; no diol, 1% UVI-6974, 25 °C): 3.84 s
ΔH ([3]; no diol, 1% UVI-6974, 25 °C): -57.8 kJ/mole epoxide

Compound: O=C(OCC1CCC2OC2C1)C1CCC2OC2C1 (stereo not drawn) [ERL-4221]
Tmax ([3]; MP-diol, Epoxy:Diol 1:1): 21.20 s
ΔH ([3]; MP-diol, Epoxy:Diol 1:1): -78.4 kJ/mole epoxide
Tmax ([3]; MP-diol, Epoxy:Diol 3:1): 6.39 s
ΔH ([3]; MP-diol, Epoxy:Diol 3:1): -49.0 kJ/mole epoxide
Tmax ([3]; Rucoflex 107, Epoxy:Diol 1:1): 6.81 s
ΔH ([3]; Rucoflex 107, Epoxy:Diol 1:1): -68.9 kJ/mole epoxide
Tmax ([3]; Rucoflex 107, Epoxy:Diol 3:1): 2.10 s
ΔH ([3]; Rucoflex 107, Epoxy:Diol 3:1): -42.9 kJ/mole epoxide
Tmax [3, 4]: 17.10 s
ΔH [3, 4]: -79.4 kJ/mole epoxide
Tmax [3, 5]: 5.34 s
ΔH [3, 5]: -14.3 kJ/mole epoxide
Tmax ([3]; SynFac 8031, Epoxy:Diol 1:1): 13.47 s
ΔH ([3]; SynFac 8031, Epoxy:Diol 1:1): -67.8 kJ/mole epoxide
Tmax ([3]; SynFac 8031, Epoxy:Diol 3:1): 13.17 s
ΔH ([3]; SynFac 8031, Epoxy:Diol 3:1): -39.7 kJ/mole epoxide
Tmax ([3]; Tone 0201, Epoxy:Diol 1:1): 9.21 s
ΔH ([3]; Tone 0201, Epoxy:Diol 1:1): -62.0 kJ/mole epoxide
Tmax ([3]; Tone 0201, Epoxy:Diol 1:3): 42.66 s
ΔH ([3]; Tone 0201, Epoxy:Diol 1:3): -44.0 kJ/mole epoxide
Tmax ([3]; Tone 0201, Epoxy:Diol 3:1): 6.00 s
ΔH ([3]; Tone 0201, Epoxy:Diol 3:1): -30.3 kJ/mole epoxide
Tmax ([3]; no diol, 1% UVI-6974, 25 °C): 4.62 s
ΔH ([3]; no diol, 1% UVI-6974, 25 °C): -10.0 kJ/mole epoxide
extents of cure ([3]; range over all diols and ratios of Tables 1 and 2): -79.4 to -10.0 kJ

Compound: CC1(c2ccccc2)CO1 (stereo not drawn) [alpha methyl styrene epoxy]
ΔH ([1]; MP-diol, Epoxy:Diol 1:1): -80.9 kJ/Mole EPOXIDE
ΔH ([1]; MP-diol, Epoxy:Diol 3:1): -56.4 kJ/Mole EPOXIDE
ΔH ([1]; Tone polyol, Epoxy:Diol 1:1): -76.5 kJ/Mole EPOXIDE
ΔH ([1]; Tone polyol, Epoxy:Diol 3:1): -66.7 kJ/Mole EPOXIDE
ΔH ([1]; no diol): -53.3 kJ/Mole EPOXIDE

Compound: CC1OC1c1ccccc1 (stereo not drawn) [beta-methyl styrene epoxy, beta-methyl styrene mono-epoxide]
ΔH ([1]; MP-diol, Epoxy:Diol 1:1): -102.6 kJ/Mole EPOXIDE
ΔH ([1]; MP-diol, Epoxy:Diol 3:1): -75.7 kJ/Mole EPOXIDE
ΔH ([1]; Tone polyol, Epoxy:Diol 1:1): -80.5 kJ/Mole EPOXIDE
ΔH ([1]; Tone polyol, Epoxy:Diol 3:1): -54.5 kJ/Mole EPOXIDE
ΔH ([1]; no diol): -85.4 kJ/Mole EPOXIDE
